Laboratory results from US20240065302A1, “SWEETENER COMPOSITIONS COMPRISING MOGROSIDES AND USES THEREOF” (Firmenich Incorporated, priority 2021, published 2024).

Experiments:
Type in all cases: in vivo, human
[1] = Expert panelists' comparison of mogrosides with stevia; conditions: with respect to Examples 4 and 5 (so in the source)
Description: (§1) A panel of flavorists at three locations evaluated lemon-lime beverage various mogrosides at a concentration of 600 ppm mogrosides for in-mouth attributes (peak sweetness, upfront sweetness, bitterness, and mouthfeel/thickness) and aftertaste attributes (sweet tastle linger), on a 0 to 10 scale. The in-mouth attributes were evaluated while holding the sample in the mouth, while the aftertaste attributes were evaluated after expectoration.
as §1, with “vanilla milk containing” for “lemon-lime beverage”, “400” for “600”, “expectoration. The data was analyzed using Duncan's new multiple range test and the scores are provided in the data below in parentheses.” for “expectoration.”

[2] = Additional sensory testing for lemon-flavored (lemon-lime) beverage (panel of flavorists); conditions: 600 ppm mogrosides, in-mouth, 0 to 10 scale
Description: as §1

[3] = Additional sensory testing for vanilla milk (panel of flavorists); conditions: 400 ppm mogrosides, in-mouth, 0 to 10 scale
Description: as §1, with “vanilla milk containing” for “lemon-lime beverage”, “400” for “600”, “expectoration. The data was analyzed using Duncan's new multiple range test and the scores are provided in the data below in parentheses.” for “expectoration.”

[4] = Sensory testing for apple drink (panel of volunteers); conditions: for Bitterness / Delayed Sweetness / Global Flavor Intensity / Sweetness / Thickness/Body: in-mouth, normalized to Reb M
Description: (§2) A panel of volunteers evaluated siratose for in-mouth attributes (sweetness, delayed sweetness, sourness, bitterness, global flavor intensity, thickness/body, and astringence) and aftertaste (AT) attributes (lingering sweetness, overall off-taste intensity, licorice off-tast, bitterness off-taste, and mouth coating) on a 10-point scale. Two replicate session were conducted, with a 20 minute break between sessions. There was a 90 second delay between samples within a session. Panelists evaluated all samples in a first session and evaluated the samples again a second time in a second session. Control samples of Rebaudioside M (Reb M) were evaluated during all sessions as a control. Mogroside V was also evaluated and sensory data for mogroside V is provided.
(§3) Data analysis was performed using 2-way analysis of variance (ANOVA) with interaction using Tukey's HSD test. The data was normalized for each attribute according to average scores for Reb M.

[5] = Sensory testing for vanilla milk (panel of volunteers); conditions: for Licorice Aftertaste / Lingering Sweetness / Mouth Coating / Overall Off-Taste: aftertaste
Description: as §2, §3
A panel of volunteers evaluated vanilla milk containing siratose for in-mouth attributes and aftertaste attributes according to the methods described in Example 1 above.

[6] = Sensory testing for sparkling orange beverage (panel of volunteers)
Description: as §2, §3
A panel of volunteers evaluated a sparkling orange beverage containing siratose for in-mouth attributes and aftertaste attibutes according to the methods described in Example 1 above.

[7] = Sensory testing for lemon-lime carbonated soft drink (panel of volunteers)
Description: as §2, §3
A panel of volunteers evaluated the siratose-containing lemon-lime carbonated soft drink for in-mouth attributes and aftertaste attributes according to the methods described in Example 1 above.

[8] = 250 ppm, aftertaste, 10-point scale
[9] = 500 ppm, aftertaste, 10-point scale
[10] = 200 ppm, 10-point scale, normalized
[11] = 200 ppm, in-mouth, 10-point scale, normalized
[12] = 400 ppm, 10-point scale, normalized
[13] = 400 ppm, in-mouth, 10-point scale, normalized
[14] = 250 ppm, aftertaste, 10-point scale, normalized
[15] = 250 ppm, in-mouth, 10-point scale, normalized
[16] = 600 ppm, aftertaste, 10-point scale, normalized
[17] = 600 ppm, in-mouth, 10-point scale, normalized

For `C[C@H](CC[C@@H](O[C@@H]1O[C@H](CO[C@@H]2O[C@H](CO)[C@@H](O)[C@H](O)[C@H]2O)[C@@H](O)[C@H](O)[C@H]1O[C@@H]1O[C@H](CO)[C@@H](O)[C@H](O)[C@H]1O)C(C)(C)O)[C@H]1CC[C@@]2(C)[C@@H]3CC=C4[C@@H](CC[C@H](O[C@@H]5O[C@H](CO)[C@@H](O[C@@H]6O[C@H](CO)[C@@H](O)[C@H](O)[C@H]6O)[C@H](O)[C@H]5O)C4(C)C)[C@]3(C)[C@H](O)C[C@]12C` [Isomogroside V], the “Aftertaste and mouthfeel compared with stevia (in words)” value [1] was “lower licorice aftertaste and lower bitter aftertaste as compared with stevia while having a better mouthfeel”.
For `C[C@H](CC[C@@H](O[C@@H]1O[C@H](CO[C@@H]2O[C@H](CO)[C@@H](O)[C@H](O)[C@H]2O)[C@@H](O)[C@H](O)[C@H]1O[C@@H]1O[C@H](CO)[C@@H](O)[C@H](O)[C@H]1O)C(C)(C)O)[C@H]1CC[C@@]2(C)[C@@H]3CC=C4[C@@H](CC[C@H](O[C@@H]5O[C@H](CO)[C@@H](O)[C@H](O)[C@H]5O)C4(C)C)[C@]3(C)[C@H](O)C[C@]12C` [Siamenoside I], the “Peak Sweetness” value [2] was 6.571 (b)_, the “Aftertaste and mouthfeel compared with stevia (in words)” value [1] was “lower licorice aftertaste and lower bitter aftertaste as compared with stevia while having a better mouthfeel” and the “Peak Sweetness” value [3] was 7.375 (a)_.
With `C[C@H](CC[C@@H](O[C@@H]1O[C@H](CO[C@H]2O[C@H](CO)[C@@H](O)[C@H](O)[C@H]2O)[C@@H](O)[C@H](O)[C@H]1O[C@@H]1O[C@H](CO)[C@@H](O)[C@H](O)[C@H]1O)C(C)(C)O)[C@H]1CC[C@@]2(C)[C@]3(C)CC=C4[C@@H](CC[C@H](O[C@@H]5O[C@H](CO)[C@@H](O)[C@H](O)[C@H]5O)C4(C)C)[C@]3(C)[C@H](O)C[C@]12C` [siratose] the “Sensory profile compared with mogroside V (in words)” value [4] was “sweeter, less bitter, and have a higher global flavor intensity than mogroside V, while having a lower overall off taste, licorice aftertaste, and bitterness aftertaste”, the “Bitterness Aftertaste” value [4, 8] was 1.1 and the “Licorice Aftertaste” value [4, 8] was 1.8. For the same molecule, the “Lingering Sweetness” value [4, 8] was 3.4, the “Overall Off-Taste” value [4, 8] was 2.8 and the Bitterness ([4]; 250 ppm, 10-point scale) was 1.5. The “Delayed Sweetness” value ([4]; 250 ppm, 10-point scale) was 2.2, the “Global Flavor Intensity” value ([4]; 250 ppm, 10-point scale) was 3.7 and the Sweetness ([4]; 250 ppm, 10-point scale) was 4.2. For the same molecule, the Thickness/Body ([4]; 250 ppm, 10-point scale) was 1.5, the “Licorice Aftertaste” value [4, 9] was 2.8 and the “Lingering Sweetness” value [4, 9] was 5.2. For the same molecule, the “Mouth Coating” value [4, 9] was 2.6, the “Overall Off-Taste” value [4, 9] was 4.0 and the Bitterness ([4]; 500 ppm, 10-point scale) was 1.7. For the same molecule, the “Delayed Sweetness” value ([4]; 500 ppm, 10-point scale) was 3.4, the “Global Flavor Intensity” value ([4]; 500 ppm, 10-point scale) was 4.6 and the Sweetness ([4]; 500 ppm, 10-point scale) was 5.9. The Thickness/Body ([4]; 500 ppm, 10-point scale) was 1.8, the “Sensory profile compared with control Reb M (in words)” value ([4]; same concentration) was “high sweetness score and similar in-mouth and aftertaste attributes as the control Reb M samples” and the “Sensory profile compared with Reb M (in words)” value ([5]; 200 ppm and 400 ppm) was “improved sweetness as comparted to Reb M”. The “Sensory profile compared with mogroside V (in words)” value ([5]; 200 ppm and 400 ppm) was “sweeter than mogroside V at both 200 ppm and 400 ppm, while having a similar aftertaste profile”, the “Licorice Aftertaste” value [5, 10] was 1.0 and the “Lingering Sweetness” value [5, 10] was 3.1. For the same molecule, the “Mouth Coating” value [5, 10] was 3.2, the “Overall Off-Taste” value [5, 10] was 1.9 and the Astringence [5, 11] was 0.5. The “Delayed Sweetness” value [5, 11] was 1.7, the Fattiness [5, 11] was 3.1 and the Sourness [5, 11] was 0.5. The Sweetness [5, 11] was 5.6, the “Licorice Aftertaste” value [5, 12] was 1.1 and the “Lingering Sweetness” value [5, 12] was 4.0. The “Mouth Coating” value [5, 12] was 0.8, the “Overall Off-Taste” value [5, 12] was 2.4 and the Astringence [5, 13] was 0.5. For the same molecule, the Bitterness [5, 13] was 0.6, the “Delayed Sweetness” value [5, 13] was 2.3 and the Fattiness [5, 13] was 3.6. The “Global Flavor Intensity” value [5, 13] was 5.1, the Sourness [5, 13] was 0.5 and the Sweetness [5, 13] was 7.1. The “Off-taste and mouth coating compared with Reb M (in words)” value [6] was “slightly lower off-taste and higher mouth coating than Reb M”, the “Sweetness compared with mogroside V (in words)” value [6] was “greater sweetness than mogroside V” and the “Licorice Aftertaste” value [6, 14] was 2.9. For the same molecule, the “Lingering Sweetness” value [6, 14] was 4.4, the “Mouth Coating” value [6, 14] was 3.0 and the “Overall Off-Taste” value [6, 14] was 3.1. For the same molecule, the “Delayed Sweetness” value [6, 15] was 4.1, the Sweetness [6, 15] was 5.8 and the “Sweetness and delayed sweetness compared with control Reb M (in words)” value ([6]; same concentration) was “high sweetness score and an increased delayed sweetness compared to the control Reb M samples”. For the same molecule, the “Aftertaste and mouthfeel compared with stevia (in words)” value [1] was “lower licorice aftertaste and lower bitter aftertaste as compared with stevia while having a better mouthfeel”, the “Sensory profile compared with mogroside V (in words)” value [7] was “higher sweetness and global flavor intensity as compared to mogroside V while having a similar aftertaste profile” and the “Bitterness Aftertaste” value [7, 16] was 1.3. For the same molecule, the “Licorice Aftertaste” value [7, 16] was 2.3, the “Lingering Sweetness” value [7, 16] was 4.3 and the “Overall Off-Taste” value [7, 16] was 3.9. The Bitterness [7, 17] was 2.1, the “Delayed Sweetness” value [7, 17] was 3.9 and the “Global Flavor Intensity” value [7, 17] was 4.5. For the same molecule, the Sweetness [7, 17] was 6.0 and the “Sensory profile compared with control Reb M (in words)” value ([7]; same concentration) was “high sweetness score and similar in-mouth and aftertaste attributes as the control Reb M samples”.
For Isomogroside IVE, the “Aftertaste and mouthfeel compared with stevia (in words)” value [1] was “lower licorice aftertaste and lower bitter aftertaste as compared with stevia while having a better mouthfeel” and the Bitterness [3] was 1.313.
